Data published in patent publication US8802597B2, “Herbicidal pyrimidines” (E I du Pont de Nemours and Company, priority 2003, dated 2014).
Where two headings read alike, the source gives them in different places.

Assays:
Type in all cases: in vivo
[1] = system: common ragweed (Ambrosia elatior); assay: Test C pre/postemergence; settings: Ambrosia artemisiifolia; for pest or weed control at 16 g/ha: 16 g ai/ha; for pest or weed control at 31 g/ha: 31 g ai/ha; for pest or weed control at 62 g/ha: 62 g ai/ha
Procedure, shortened: (§1)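 Applications: preemergence onto seeded soil and postemergence onto 1- to 4-leaf seedlings, compound carried in non-phytotoxic solvent plus surfactant. Kept in greenhouse 12 to 14 days. Scored visually relative to untreated controls, 0 (no effect) to 100 (complete control).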

[2] = system: goosegrass (Eleusine indica); assay: Test C pre/postemergence; settings: Eleusine indica; for pest or weed control at 16 g/ha: 16 g ai/ha; for pest or weed control at 31 g/ha: 31 g ai/ha; for pest or weed control at 62 g/ha: 62 g ai/ha; for pest or weed control at 125 g/ha: 125 g ai/ha
Procedure, shortened: as §1

[3] = system: pigweed (Amaranthus retroflexus); assay: Test C pre/postemergence; settings: Amaranthus retroflexus; for pest or weed control at 16 g/ha: 16 g ai/ha; for pest or weed control at 31 g/ha: 31 g ai/ha; for pest or weed control at 62 g/ha: 62 g ai/ha
Procedure, shortened: as §1

[4] = system: velvetleaf (Abutilon theophrasti); assay: Test C pre/postemergence; settings: Abutilon theophrasti; for pest or weed control at 16 g/ha: 16 g ai/ha; for pest or weed control at 31 g/ha: 31 g ai/ha; for pest or weed control at 62 g/ha: 62 g ai/ha
Procedure, shortened: as §1

[5] = system: woolly cupgrass (Eriochloa villosa); assay: Test C pre/postemergence; settings: Eriochloa villosa; for pest or weed control at 16 g/ha: 16 g ai/ha; for pest or weed control at 31 g/ha: 31 g ai/ha; for pest or weed control at 62 g/ha: 62 g ai/ha; for pest or weed control at 125 g/ha: 125 g ai/ha
Procedure, shortened: as §1

[6] = system: yellow nutsedge (Cyperus esculentus); assay: Test C pre/postemergence; settings: Cyperus; for pest or weed control at 16 g/ha: 16 g ai/ha; for pest or weed control at 31 g/ha: 31 g ai/ha; for pest or weed control at 62 g/ha: 62 g ai/ha
Procedure, shortened: as §1

[7] = system: bermudagrass (Cynodon dactylon); assay: Test C pre/postemergence; settings: Cynodon dactylon; for pest or weed control at 16 g/ha: 16 g ai/ha; for pest or weed control at 31 g/ha: 31 g ai/ha; for pest or weed control at 62 g/ha: 62 g ai/ha; for pest or weed control at 125 g/ha: 125 g ai/ha
Procedure, shortened: as §1

[8] = system: chickweed (Stellaria media); assay: Test C postemergence; settings: Stellaria media, post-emergence
Procedure, shortened: as §1

[9] = system: crabgrass (Digitaria sanguinalis); assay: Test A pre/postemergence; settings: Digitaria sanguinalis, 240 h, read-out: Plant response rating, Crabgrass; for pest or weed control at 125 g/ha: 125 g ai/ha; for pest or weed control at 500 g/ha: 500 g ai/ha
Procedure, shortened: (§2)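 Visual injury scored 0–100 (0 = no effect, 100 = complete control) against untreated controls after about ten days in the greenhouse. Compounds, formulated in non-phytotoxic solvent plus surfactant, were applied preemergence as a directed soil spray and postemergence at the 1- to 2-leaf stage (2–10 cm).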

[10] = system: barnyardgrass (Echinochloa crus-galli); assay: Test A pre/postemergence; settings: Echinochloa crus-galli, 240 h, read-out: Plant response rating, Barnyardgrass; for pest or weed control at 125 g/ha: 125 g ai/ha; for pest or weed control at 500 g/ha: 500 g ai/ha
Procedure, shortened: as §2

[11] = post-emergence, Postemergence, read-out: Plant response rating (scale of 0 to 100), Ragweed
[12] = pre-emergence, Preemergence, scale 0 to 100, 0 no effect, 100 complete control, read-out: Plant response rating, Ragweed
[13] = post-emergence, Postemergence, read-out: Plant response rating (scale of 0 to 100), Goosegrass
[14] = pre-emergence, Preemergence, scale 0 to 100, 0 no effect, 100 complete control, read-out: Plant response rating, Goosegrass
[15] = post-emergence, Postemergence, read-out: Plant response rating (scale of 0 to 100), Pigweed
[16] = pre-emergence, Preemergence, scale 0 to 100, 0 no effect, 100 complete control, read-out: Plant response rating, Pigweed
[17] = post-emergence, Postemergence, read-out: Plant response rating (scale of 0 to 100), Velvetleaf
[18] = pre-emergence, Preemergence, scale 0 to 100, 0 no effect, 100 complete control, read-out: Plant response rating, Velvetleaf
[19] = post-emergence, Postemergence, read-out: Plant response rating (scale of 0 to 100), Cupgrass, Woolly
[20] = pre-emergence, Preemergence, scale 0 to 100, 0 no effect, 100 complete control, read-out: Plant response rating, Cupgrass, Woolly
[21] = post-emergence, Postemergence, read-out: Plant response rating (scale of 0 to 100), Nutsedge, Yellow
[22] = pre-emergence, Preemergence, scale 0 to 100, 0 no effect, 100 complete control, read-out: Plant response rating, Nutsedge, Yellow
[23] = post-emergence, Postemergence, read-out: Plant response rating (scale of 0 to 100), Bermudagrass
[24] = post-emergence, Postemergence, scale 0 to 100 (0 no effect, 100 complete control), read-out: Bermudagrass plant response rating
[25] = pre-emergence, Preemergence, scale 0 to 100, 0 no effect, 100 complete control, read-out: Plant response rating, Bermudagrass
[26] = post-emergence, Postemergence, 0 to 100 scale (0 no effect, 100 complete control)
[27] = pre-emergence, Preemergence, 0 to 100 scale where 0 is no effect and 100 is complete control, approximately ten days

Nc1nc(-c2ccc(Cl)cc2)nc(C(=O)O)c1Cl [Compound 65, 6-amino-5-chloro-2-(4-chlorophenyl)-4-pyrimidinecarboxylic acid]
65%: pest or weed control at 16 g/ha [4, 17]
85%: pest or weed control at 16 g/ha [1, 12] | pest or weed control at 31 g/ha [1, 12] | pest or weed control at 62 g/ha [5, 19] | pest or weed control at 125 g/ha ([5]; post-emergence, Postemergence, scale 0 to 100 (0 no effect, 100 complete control), read-out: Cupgrass, Woolly plant response rating) | pest or weed control at 125 g/ha [10, 26] | pest or weed control at 500 g/ha [10, 26]
80%: pest or weed control at 16 g/ha [1, 11] | pest or weed control at 31 g/ha [3, 16] | pest or weed control at 62 g/ha [3, 16] | pest or weed control at 31 g/ha [4, 17] | pest or weed control at 62 g/ha [4, 17] | pest or weed control at 62 g/ha [4, 18] | pest or weed control at 31 g/ha [5, 19] | pest or weed control at 125 g/ha ([7]; pre-emergence, Preemergence, scale 0 to 100, read-out: Plant response rating, Bermudagrass) | pest or weed control at 500 g/ha [9, 26]
30%: pest or weed control at 62 g/ha [6, 22]
90%: pest or weed control at 31 g/ha [1, 11] | pest or weed control at 62 g/ha [1, 12] | pest or weed control at 16 g/ha [3, 15] | pest or weed control at 31 g/ha [3, 15] | pest or weed control at 125 g/ha ([4]; post-emergence, Postemergence, 125 g ai/ha, scale 0 to 100 (0 no effect, 100 complete control), read-out: Velvetleaf plant response rating) | pest or weed control at 500 g/ha [9, 27] | pest or weed control at 500 g/ha [10, 27]
0%: pest or weed control at 16 g/ha [2, 14] | pest or weed control at 31 g/ha [2, 14] | pest or weed control at 62 g/ha [2, 14] | pest or weed control at 16 g/ha [4, 18] | pest or weed control at 16 g/ha [5, 20] | pest or weed control at 31 g/ha [5, 20] | pest or weed control at 16 g/ha [6, 21] | pest or weed control at 31 g/ha [6, 21] | pest or weed control at 16 g/ha [6, 22] | pest or weed control at 31 g/ha [6, 22] | pest or weed control at 16 g/ha [7, 25]
95%: pest or weed control at 62 g/ha [1, 11] | pest or weed control at 125 g/ha ([1]; post-emergence, Postemergence, 125 g ai/ha, scale 0 to 100 (0 no effect, 100 complete control), read-out: Ragweed plant response rating)
100%: pest or weed control at 62 g/ha [3, 15] | pest or weed control at 125 g/ha ([3]; post-emergence, Postemergence, 125 g ai/ha, scale 0 to 100 (0 no effect, 100 complete control), read-out: Pigweed plant response rating)
40%: pest or weed control at 16 g/ha [3, 16] | pest or weed control at 31 g/ha [4, 18]
20%: pest or weed control at 62 g/ha [6, 21]
55%: pest or weed control at 125 g/ha [9, 26]
60%: pest or weed control at 16 g/ha [5, 19] | pest or weed control at 16 g/ha [7, 23] | pest or weed control at 31 g/ha [7, 23] | pest or weed control at 16 g/ha ([8]; 16 g ai/ha, read-out: Plant response rating (scale of 0 to 100), Chickweed) | pest or weed control at 31 g/ha ([8]; 31 g ai/ha, read-out: Plant response rating (scale of 0 to 100), Chickweed) | pest or weed control at 62 g/ha ([8]; 62 g ai/ha, read-out: Plant response rating (scale of 0 to 100), Chickweed) | pest or weed control at 125 g/ha [9, 27]
50%: pest or weed control at 16 g/ha [2, 13] | pest or weed control at 31 g/ha [2, 13] | pest or weed control at 125 g/ha ([2]; pre-emergence, Preemergence, scale 0 to 100, read-out: Plant response rating, Goosegrass) | pest or weed control at 125 g/ha ([6]; post-emergence, Postemergence, 125 g ai/ha, scale 0 to 100 (0 no effect, 100 complete control), read-out: Nutsedge, Yellow plant response rating) | pest or weed control at 31 g/ha [7, 25] | pest or weed control at 125 g/ha [10, 27]
5%: pest or weed control at 62 g/ha [5, 20]
70%: pest or weed control at 62 g/ha [2, 13] | pest or weed control at 125 g/ha ([2]; post-emergence, Postemergence, scale 0 to 100 (0 no effect, 100 complete control), read-out: Goosegrass plant response rating) | pest or weed control at 125 g/ha ([5]; pre-emergence, Preemergence, scale 0 to 100, read-out: Plant response rating, Cupgrass, Woolly) | pest or weed control at 62 g/ha [7, 24] | pest or weed control at 125 g/ha [7, 24] | pest or weed control at 62 g/ha [7, 25] | pest or weed control at 125 g/ha ([8]; 125 g ai/ha, scale 0 to 100 (0 no effect, 100 complete control), read-out: Chickweed plant response rating)
